Test results from patent publication US20130202686A1 (priority 2010, published 2013).
Where a name gives a salt, the structure may show the parent alone.

Columns and labels:
[1] = Donepezil Liposome Drug Dynamics 2 (plasma concentration of donepezil hydrochloride); conditions: rat, SC 5 mg/kg
Description: (Em) of 385 nm was quantified by high performance liquid chromatography using a fluorophotometer.
Furthermore, for comparison, donepezil used alone was administered subcutaneously into a back part of a rat in a dose of 5 mg/kg. For the donepezil used alone, blood was sampled from a tail vein after lapses of 0.5, 1, 5, 10, 30, 120, 480, 1440, and 2880 minutes from the administration. For the liposome compositions, on the other hand, blood was sampled from a tail vein after lapses of 1, 3, 4, 8, 24, 48, 72, 96, 120, 144, 168, 192, 216, 264, 288, 312, and 336 hours from the administration.

[2] = rat, in vivo, sc, 5 mg/kg, 4 h
Description: For the bupivacaine hydrochloride liposome prepared in Preparation Example 12 and bupivacaine hydrochloride used alone, a drug dynamics test was conducted. Subcutaneous administration into a back part of a rat was conducted in a dose, in terms of the amount of bupivacaine hydrochloride, as set forth in Table 7. After lapses of 1, 24, 72, 120, and 168 hours from the administration of the bupivacaine hydrochloride liposome composition, and after lapses of 0.5, 4, and 24 hours from the administration of the bupivacaine hydrochloride used alone, back region subcutaneous tissue in the administration site was sampled and subjected to a homogenizing treatment. Subsequently, the homogenized solution was treated, the resultant sample solution was subjected to high performance liquid chromatography determination (UV-visible absorptiometer; measurement wavelength 210 nm), and the concentration of bupivacaine hydrochloride remaining in the back region subcutaneous tissue in the administration site was determined. The retention rate of bupivacaine hydrochloride (used alone) in the administration site was lowered to below 1% in four hours after the administration. […] On the other hand, the bupivacaine hydrochloride liposome gave a profile of sustained release from the administration site, and about 35% of bupivacaine hydrochloride remained on the seventh day from the administration.

For `COc1cc2c(cc1OC)C(=O)C(CC1CCN(Cc3ccccc3)CC1)C2` (stereo not drawn) [donepezil hydrochloride, Donepezil hydrochloride], which “concentration in blood after 48 hours” value [1] is on record?
The value was “below the detection limit”.

And the “time of maximum concentration in blood” value [1]?
Its value is 0.5 h.

With `CCCCN1CCCCC1C(=O)Nc1c(C)cccc1C` (stereo not drawn) [bupivacaine hydrochloride, Bupivacaine hydrochloride] as the compound, how does the “retention rate of bupivacaine hydrochloride in the administration site” value [2] read?
The value was “below 1%”.
